This note sets out measurements from PubChem BioAssay (NCI).

Test systems include UACC-62 melanoma; K-562 leukemia; 786-0 renal; SNB-19 CNS; NCI-H522 lung; HS 578T breast; SNB-75 CNS; MALME-3M melanoma; OVCAR-4 ovarian; SR leukemia.
Assay in all cases: growth of human tumour cells (NCI), 48 h

“And” between values parts separate entries of the source, which are not always exact repeats. Equal values may be shown once.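 96-well plates; 48 h exposure; 5 concentrations. Endpoints by linear interpolation between flanking doses. Not reached: highest tested concentration assigned. GI50: concentration for 50% inhibition of growth. TGI denotes the concentration required for complete inhibition of growth.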

For the compound `CCOC(=O)C1=C(C)NC2SC(=O)/C(=C\c3ccccc3Cl)N2C1c1ccccc1` (stereo not given), the GI50 in the assay with UACC-62 melanoma, in the assay on K-562 leukemia, in the assay on 786-0 renal, with SNB-19 CNS, with NCI-H522 lung and with HS 578T breast was greater than 100 µM throughout. Besides, the GI50 in the assay with SNB-75 CNS is greater than 100 µM. In addition, the TGI in the assay with UACC-62 melanoma, in the assay on K-562 leukemia, in the assay with 786-0 renal, in the assay with SNB-19 CNS, with NCI-H522 lung and with HS 578T breast was greater than 100 µM each time. The compound further had a TGI with SNB-75 CNS greater than 100 µM.
As to `CCCCN(CCCC)c1ccc(C(=N)c2ccc(N(C)C)cc2)cc1`, the GI50 was 0.651 µM with MALME-3M melanoma; 0.449 µM in the assay on UACC-62 melanoma; 1.1 µM in the assay on 786-0 renal; 0.951 µM in the assay on SNB-19 CNS; 0.375 µM with OVCAR-4 ovarian; 1.18 µM in the assay on HS 578T breast. Further, the GI50 in the assay with SNB-75 CNS was 1.14 µM. For the same compound, the TGI in the assay on MALME-3M melanoma amounted to 2.23 µM; with UACC-62 melanoma, 1.77 µM; in the assay with 786-0 renal, 2.55 µM; in the assay with SNB-19 CNS, 2.37 µM; with OVCAR-4 ovarian it was 1.46 µM; in the assay on HS 578T breast, 3.28 µM. The same compound gave a TGI with SNB-75 CNS of 2.42 µM.
Regarding `COC1C(O)C(C)OC(OC2C(Oc3cccc4c(O)c5c(=O)oc6ccc(C)c7c(=O)oc(c34)c5c67)OC(C)C3O[C@H](c4ccccc4)OC32)C1O` (stereo not given in full), the TGI in the assay with MALME-3M melanoma was determined as 3.72 µM; with UACC-62 melanoma, 1.9 µM; in the assay on K-562 leukemia, 23.2 µM; in the assay on 786-0 renal it was 7.16 µM; with SNB-19 CNS it was 19.2 µM; in the assay with NCI-H522 lung, 6.78 µM. Moreover, the figures for the TGI in the assay on OVCAR-4 ovarian, in the assay with HS 578T breast and in the assay on SNB-75 CNS were 9.75 µM, 17.9 µM and 7.65 µM, respectively. Besides, the GI50 is 0.304 µM in the assay with UACC-62 melanoma; 0.309 µM and 0.0798 µM with K-562 leukemia; 0.284 µM and 0.262 µM with NCI-H522 lung.
On to `CC1=CC[C@@H]2C(C)(C)C(=O)CC[C@@]2(C)[C@@H]1COc1ccc2ccc(=O)oc2c1`, for which the GI50 was 14.4 µM in the assay on MALME-3M melanoma; 13.2 µM in the assay with SR leukemia; 5.22 µM with UACC-62 melanoma; 7.02 µM in the assay with K-562 leukemia; 46.8 µM in the assay on 786-0 renal; 32.9 µM in the assay on SNB-19 CNS. Moreover, the GI50 with NCI-H522 lung was 8.97 µM; in the assay on OVCAR-4 ovarian, 5.53 µM; in the assay on HS 578T breast, 40.5 µM. Moreover, the TGI is 38.9 µM in the assay with MALME-3M melanoma; 68.5 µM with SR leukemia; 23.5 µM in the assay on UACC-62 melanoma; 88.7 µM in the assay with K-562 leukemia; greater than 100 µM with 786-0 renal; greater than 100 µM with SNB-19 CNS. Further, the TGI is 50.9 µM in the assay on NCI-H522 lung, 44.8 µM with OVCAR-4 ovarian and greater than 100 µM in the assay with HS 578T breast.
As to `COc1cc([N+](=O)[O-])c(S(=O)(=O)O)cc1NS(=O)(=O)c1ccc(C)cc1`, the TGI in the assay on SR leukemia, with UACC-62 melanoma, in the assay on K-562 leukemia, in the assay with 786-0 renal, in the assay with SNB-19 CNS and in the assay with NCI-H522 lung was greater than 100 µM in each case. Besides, the TGI in the assay with OVCAR-4 ovarian, with HS 578T breast and in the assay on SNB-75 CNS was greater than 100 µM in each case.
Regarding `CC(C)(C)N/N=C(\Cc1occc(=O)c1O)C(=O)Nc1ccc([N+](=O)[O-])cc1[N+](=O)[O-]`, the TGI in the assay with MALME-3M melanoma, with SR leukemia, in the assay with UACC-62 melanoma, in the assay with K-562 leukemia, in the assay with 786-0 renal and with SNB-19 CNS was greater than 100 µM each time. For the same compound, the TGI in the assay with NCI-H522 lung, with OVCAR-4 ovarian and with SNB-75 CNS was greater than 100 µM in each case.
Turning to `[C-]#[O+].[Cl][Sn]([Cl])[Cl].[Cl][Sn]([Cl])[Cl].[Pt].c1ccc([PH+](c2ccccc2)c2ccccc2)cc1.c1ccc([PH+](c2ccccc2)c2ccccc2)cc1`, the GI50 is 60 µM in the assay on MALME-3M melanoma; 37.7 µM in the assay on SR leukemia; 27.7 µM in the assay on UACC-62 melanoma; 34.8 µM in the assay on K-562 leukemia; 53.5 µM with 786-0 renal; 34.5 µM in the assay with SNB-19 CNS. For the same compound, the values for the GI50 in the assay on NCI-H522 lung, in the assay with OVCAR-4 ovarian and with SNB-75 CNS were 23.3 µM, 56.1 µM and greater than 100 µM, respectively. Moreover, the TGI in the assay with MALME-3M melanoma, in the assay on SR leukemia, in the assay with UACC-62 melanoma, in the assay with K-562 leukemia, in the assay on 786-0 renal and in the assay on SNB-19 CNS was greater than 100 µM each time. Further, the TGI in the assay with NCI-H522 lung was 56.7 µM; in the assay on OVCAR-4 ovarian, greater than 100 µM; with SNB-75 CNS, greater than 100 µM.
`NC(N)=NS(=O)(=O)c1ccc(Nc2c3ccccc3nc3c(C(=O)N4CCN(CCO)CC4)cccc23)cc1`: the TGI with MALME-3M melanoma, with SR leukemia, in the assay with UACC-62 melanoma, in the assay on K-562 leukemia, in the assay on 786-0 renal and in the assay with SNB-19 CNS was greater than 100 µM throughout. Besides, the TGI with NCI-H522 lung, in the assay with OVCAR-4 ovarian and in the assay on SNB-75 CNS was greater than 100 µM each time.
As for `C/C=C(\C)c1cc(=O)c2c(C)cc3c(c2o1)C(=O)c1c(O)c(C2CC(C)(N(C)C)C(O)C(C)O2)cc(C2CC(N(C)C)C(O)C(C)O2)c1C3=O` (stereo not given), the TGI with SR leukemia was 12 µM; in the assay with K-562 leukemia it was greater than 53.6 µM; in the assay on 786-0 renal it was 0.946 µM; in the assay on SNB-19 CNS, 7.54 µM and 28.8 µM; in the assay with OVCAR-4 ovarian it was 3.64 µM and 11.2 µM; in the assay on HS 578T breast, 0.517 µM. Moreover, the GI50 in the assay on SNB-19 CNS was 0.404 µM and 2.6 µM.
With `O=C(CC(=O)c1ccc([N+](=O)[O-])cc1)C(=O)Nc1nccs1`, the TGI in the assay with MALME-3M melanoma, with SR leukemia, with UACC-62 melanoma, in the assay on K-562 leukemia, in the assay on 786-0 renal and in the assay on SNB-19 CNS was greater than 100 µM in each case. The TGI with NCI-H522 lung, in the assay on OVCAR-4 ovarian and in the assay with SNB-75 CNS was greater than 100 µM in each case.
With `Cc1cc2cccnc2c2ncccc12`, the GI50 was 2.17 µM in the assay on MALME-3M melanoma; 1.28 µM with UACC-62 melanoma; 0.77 µM in the assay with 786-0 renal; 2.27 µM in the assay on SNB-19 CNS; 3.52 µM with NCI-H522 lung; 0.418 µM with OVCAR-4 ovarian. The GI50 with HS 578T breast is 4.04 µM; in the assay with SNB-75 CNS, 3.24 µM. Also, the TGI was 7.21 µM in the assay on MALME-3M melanoma; 9.19 µM in the assay on UACC-62 melanoma; 5.97 µM in the assay with 786-0 renal; greater than 100 µM in the assay with SNB-19 CNS; 17.9 µM in the assay on NCI-H522 lung; 14.8 µM in the assay with OVCAR-4 ovarian. Further, the TGI is 47.9 µM with HS 578T breast and greater than 100 µM with SNB-75 CNS.
